Data taken from patent publication US4681877A, “Pivaloyloxymethyl 7-β-[2-(2-amino-4-thiazolyl)-2-methoxyiminoacetamido]-3-(2-amino-1, 3-thiadiazolyl-5-thiomethyl)-3-cepheme-4-carboxylate and pharmaceutical composition containing the same” (Kureha Kagaku Kogyo Kabushiki Kaisha, priority 1982, dated 1987).
Like-named read-outs stand apart in the source and are kept apart here.

Key:
[1] = Acute mammalian toxicity (LD50, 7-day mortality); format: in vivo; details: mouse, in vivo
Method: (§1) Acute mammalian toxicity of the compound represented by the formula(I) and the compound represented by the formula(V) was investigated by orally or intraperitoneally administering a series of aqueous physiological saline solution containing each of the above-mentioned compounds to groups of ICR-JCL mice, and observing the toxic symptoms appearing on the mice including the mortality for 7 days. Then, from the cumulative mortality, LD50 values were calculated by Litchfield-Wilcoxon's graphical method.

ICR-JCL mice = assay: Acute mammalian toxicity (LD50, 7-day mortality); format: in vivo; details: autopsy after 7 days, dead and live mice
Method: as §1

E. coli IFO 12734 = assay: Minimum growth-inhibition concentration (MIC), E. coli IFO 12734; format: cell-based, Escherichia coli; details: Mueller-Hinton agar, 18 to 24 hours at 37° C.
Method: (§2) The minimum inhibiting concentration(MIC) of the compound represented by the formula(I) and the compound represented by the formula(V) was measured according to the standard method of Japan Society of Chemotherapy against each of the following bacterial species:
(§3) Anti-bacterial activity of the compounds respectively produced in Examples 1, 2 and 3 was determined according to the standard method of Japanese Society of Chemotherapy as follows.
(§4) Each of the following bacterial strains was inoculated in Mueller-Hinton's culture medium and cultured for 18 to 48 hours at 37° C. to obtain a standard bacterial liquid containing 10^6 cells/ml.
(§5) Separately, agar plates were prepared by adding each of the solutions of each of the compounds respectively produced in Examples, 1, 2 and 3 at predetermined concentrations in amount of one ninth by weight to Mueller-Hinton's culture medium.

[2] = tested on: Staphylococcus aureus IAM 1011; assay: Minimum growth-inhibition concentration (MIC), Staphylococcus aureus IAM 1011; format: cell-based; details: Mueller-Hinton agar, 18 to 24 hours at 37° C.
Method: as §2, §3, §4, §5

E. coli W 3636 = assay: Minimum growth-inhibition concentration (MIC), E. coli W 3636; format: cell-based, Escherichia coli; details: Mueller-Hinton agar, 18 to 24 hours at 37° C.
Method: as §2, §3, §4, §5

[3] = tested on: Proteus vulgaris IAM 1025; assay: Minimum growth-inhibition concentration (MIC), Proteus vulgaris IAM 1025; format: cell-based; details: Mueller-Hinton agar, 18 to 24 hours at 37° C.
Method: as §2, §3, §4, §5

[4] = tested on: Pseudomonas aeruginosa IAM 1514; assay: Minimum growth-inhibition concentration (MIC), Pseudomonas aeruginosa IAM 1514; format: cell-based; details: Mueller-Hinton agar, 18 to 24 hours at 37° C.
Method: as §2, §3, §4, §5

[5] = tested on: Serratia marcescens IAM 1223; assay: Minimum growth-inhibition concentration (MIC), Serratia marcescens IAM 1223; format: cell-based; details: Mueller-Hinton agar, 18 to 24 hours at 37° C.
Method: as §2, §3, §4, §5

test bacterial species = assay: Anti-bacterial activity (MIC) in general, all test species; format: cell-based; details: against the test bacterial species
Method: as §2
Escherichia coli IFO 12734
Staphylococcus aureus IAM 1011
Proteus vulgaris IAM 1025
Pseudomonas aeruginosa IAM 1514 and
Serratia marcescens IAM 1223

Escherichia coli IFO = assay: Effects on infectious disease (mice infected with Escherichia coli IFO); format: in vivo; details: orally 100 mg/kg just after and 4 hours after inoculation; 7 days
Method: After inoculating a group consisting of 20 mice with Escherichia coli IFO intraperitoneously to be infected, the compound represented by the formula(V) was orally administered to the mice just after and after 4 hours of inoculation at a dose rate of 100 mg/kg body weight, and after 7 days of the administration, the effectiveness of the compound was judged by observing the death rate of each group of mice by the infection.
In the same manner, after inoculating another group consisting of 20 mice with Escherichia coli IFO intraperitoneously to be infected, the compound represented by the formula(I) was orally administered thereto just after and after 4 hours of inoculation at the dose rate of 100 mg/kg body weight, and after 7 days of the administration, the effectiveness of the compound was judged by observing the rate of survival of the mice.

[6] = Stability to rat liver homogenate (S-9 mix): rate of maintaining the antibacterial activity; format: in vitro ADME; details: S-9 mix
Method: For verifying the stability of the compound represented by the formula (I), 7-beta-[2-(2-amino-4-thiazolyl)-2-methoxyiminoacetamindo]-3-(-2-amino-1,3,4-thiadiazoyl-5-thiomethyl)-3-cepheme -4-carboxyulic acid in living body of the host, the following model experiment was carried out.
As a metabolism-activating enzyme, a rat liver homogenate (S-9, manufactured by Oriental Yeast Co.) was used in the following composition(referred to as S-9 mix, hereinafter):
After mixing 0.1 ml of a solution of the compound to be tested with 0.9 ml of S-9 mix or 0.9 ml of 0.1 M phosphoric acid buffer solution, the mixture was subjected to shaking culture for 20 min at 37° C. to prepare a test reaction solution for use in the following experiment.
Staphylococcus aureus IAM 1011 was inoculated to Mueller-Hinton'culture medium and the inoculum was cultured for 18 hours at 37° C. and after adjusting the number of the bacterial cells to 10^8 /ml of the culture medium, 50 times by weight of the Mueller-Hinton agar culture medium were added to the cultured medium to prepare flat culture plates. After placing a penicillin-cup of 8 mm in diameter on each of the thus prepared flat culture plates, 0.1 ml of the above-mentioned test reaction solution was introduced into the penicillin cup, and after leaving the system for 2 hours at 4° C., the system was incubated for 18 hours at 37° C., and the diameter of the growth-inhibition circle around the cup on the culture plate was determined.
By applying each of the thus determined diameters of the respective growth-inhibition circles on a diagram preliminarily prepared to indicate the relationship between the diameter of the growth-inhibition circle and the concentration of the compound in the culture medium before carrying out the culture, the concentration of the compound in the culture medium in the presence of S-9 mix was obtained(referred to as C2). […]

Escherichia coli = assay: Effect on the experimental infectious disease on mice; format: in vivo, Escherichia coli; ddY-strain SPF mice; details: orally 100 mg/kg, ddY-strain SPF mice, 1.4×10^8 cells E. coli i.p.
Method: To each of the two groups of ddY-strain SPF mice, 1.4×10^8 cells of Escherichia coli was intraperitoneously inoculated to be infected, and just after or after 4 hours of the inoculation, the compound represented by the formula (I) was orally administered at a dose rate of 100 mg/kg.

CON=C(C(=O)N[C@@H]1C(=O)N2C(C(=O)O)=C(CSc3nnc(N)s3)CS[C@H]12)c1csc(N)n1 [Example 1, 7-beta-[2-(2-amino-4-thiazolyl)-2-methoxyiminoacetamido]-3-(2-amino-1,3,4-thiadiazolyl-5-thiomethyl)-3-cepheme-4-carboxylic acid]
LD50 at 168 h ([1]; ip, read-out: LD50 (intraperitoneous)): > 10000 mg/kg
LD50 at 168 h ([1]; po, read-out: LD50 (oral)): > 10000 mg/kg
Autopsy findings (ICR-JCL mice): No noticeable information
Minimum growth-inhibition concentration (MIC) on E. coli IFO 12734 (E. coli IFO 12734): < 0.05
Minimum growth-inhibition concentration (MIC) on Staphylococcus aureus IAM 1011 [2]: 0.78
Minimum growth-inhibition concentration (MIC) on E. coli W 3636 (E. coli W 3636): 0.2
Minimum growth-inhibition concentration (MIC) on Proteus vulgaris IAM 1025 [3]: < 0.05
Minimum growth-inhibition concentration (MIC) on Pseudomonas aeruginosa IAM 1514 [4]: 12.5
Minimum growth-inhibition concentration (MIC) on Serratia marcescens IAM 1223 [5]: 0.2
Anti-bacterial activity (MIC), in words (test bacterial species): strong and broad anti-bacterial activity
Rate of survival (Escherichia coli IFO): over 55%
Stability to the action of rat liver homogenate, in words [6]: stable
remaining at 20 min ([6]; rat, liver homogenate s-9 mix, 20 min at 37° C., read-out: Rate of maintaining the antibacterial activity): 80%
Survival on the 7th day of infection (Escherichia coli): more than 55%
